According to PubChem BioAssay (NCI):
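Step 1: Grow cells in 96-well plates. Step 2: Expose to compound for 48 hours at 5 concentrations. Step 3: Interpolate endpoints linearly; if unreached, use highest concentration. At the TGI there is no net growth.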

Columns and labels:
Test in all cases: NCI-60 cell line screen, 48 h
SNB-19 CNS = test system: SNB-19 CNS
MCF7 breast = test system: MCF7 breast
U251 CNS = test system: U251 CNS
SK-MEL-28 melanoma = test system: SK-MEL-28 melanoma
HS 578T breast = test system: HS 578T breast
MALME-3M melanoma = test system: MALME-3M melanoma
HL-60(TB) leukemia = test system: HL-60(TB) leukemia
HCC-2998 colon = test system: HCC-2998 colon
A549 NSCLC = test system: A549 NSCLC
IGROV1 ovarian = test system: IGROV1 ovarian
HCT-15 colon = test system: HCT-15 colon
K-562 leukemia = test system: K-562 leukemia
DU-145 prostate = test system: DU-145 prostate
NCI-H23 lung = test system: NCI-H23 lung
SF-295 CNS = test system: SF-295 CNS
HCT-116 colon = test system: HCT-116 colon
UO-31 renal = test system: UO-31 renal
MDA-MB-231 breast = test system: MDA-MB-231 breast
NCI-H460 lung = test system: NCI-H460 lung
UACC-257 melanoma = test system: UACC-257 melanoma
OVCAR-5 ovarian = test system: OVCAR-5 ovarian
MDA-N = test system: MDA-N
HOP-92 NSCLC = test system: HOP-92 NSCLC
UACC-62 melanoma = test system: UACC-62 melanoma
OVCAR-8 ovarian = test system: OVCAR-8 ovarian
TK-10 renal = test system: TK-10 renal
HT29 colon = test system: HT29 colon
NCI-H522 lung = test system: NCI-H522 lung
786-0 renal = test system: 786-0 renal
KM12 colon = test system: KM12 colon
OVCAR-4 ovarian = test system: OVCAR-4 ovarian
SNB-75 CNS = test system: SNB-75 CNS
SN12C renal = test system: SN12C renal
RPMI-8226 leukemia = test system: RPMI-8226 leukemia
MDA-MB-435 = test system: MDA-MB-435
NCI/ADR-RES ovarian = test system: NCI/ADR-RES ovarian
CCRF-CEM leukemia = test system: CCRF-CEM leukemia
MOLT-4 leukemia = test system: MOLT-4 leukemia
BT-549 breast = test system: BT-549 breast
CAKI-1 renal = test system: CAKI-1 renal
SK-MEL-2 melanoma = test system: SK-MEL-2 melanoma
SK-OV-3 ovarian = test system: SK-OV-3 ovarian
COLO 205 colon = test system: COLO 205 colon
NCI-H226 lung = test system: NCI-H226 lung
HOP-62 NSCLC = test system: HOP-62 NSCLC
SF-268 CNS = test system: SF-268 CNS
SW-620 colon = test system: SW-620 colon
RXF 393 renal = test system: RXF 393 renal
SR leukemia = test system: SR leukemia
M14 melanoma = test system: M14 melanoma
LOX IMVI melanoma = test system: LOX IMVI melanoma
ACHN renal = test system: ACHN renal
SF-539 CNS = test system: SF-539 CNS
OVCAR-3 ovarian = test system: OVCAR-3 ovarian
PC-3 prostate = test system: PC-3 prostate
T-47D breast = test system: T-47D breast
SK-MEL-5 melanoma = test system: SK-MEL-5 melanoma
A498 renal = test system: A498 renal
EKVX NSCLC = test system: EKVX NSCLC

Molecule `CC(C)N1CC2CN(Cc3ccccc3)CC(C1)C2=O` has a TGI (SNB-19 CNS) of over 100 µM, a TGI (MCF7 breast) of over 100 µM and a TGI (U251 CNS) of over 100 µM. The TGI (SK-MEL-28 melanoma) was over 100 µM, the TGI (HS 578T breast) was over 100 µM and the TGI (MALME-3M melanoma) was over 100 µM. The TGI (HL-60(TB) leukemia) was over 100 µM, the TGI (HCC-2998 colon) was over 100 µM and the TGI (A549 NSCLC) was over 100 µM. It also gave a TGI (IGROV1 ovarian) of over 100 µM, a TGI (HCT-15 colon) of over 100 µM and a TGI (K-562 leukemia) of over 100 µM. The TGI (DU-145 prostate) was over 100 µM, the TGI (NCI-H23 lung) was over 100 µM and the TGI (SF-295 CNS) was over 100 µM. The TGI (HCT-116 colon) was over 100 µM, the TGI (UO-31 renal) was over 100 µM and the TGI (MDA-MB-231 breast) was over 100 µM. The TGI (NCI-H460 lung) was over 100 µM, the TGI (UACC-257 melanoma) was over 100 µM and the TGI (OVCAR-5 ovarian) was over 100 µM. It also gave a TGI (MDA-N) of over 100 µM, a TGI (HOP-92 NSCLC) of over 100 µM and a TGI (UACC-62 melanoma) of over 100 µM. For the same molecule, the TGI (OVCAR-8 ovarian) was over 100 µM, the TGI (TK-10 renal) was over 100 µM and the TGI (HT29 colon) was over 100 µM. The TGI (NCI-H522 lung) was over 100 µM, the TGI (786-0 renal) was over 100 µM and the TGI (KM12 colon) was over 100 µM. The TGI (OVCAR-4 ovarian) was over 100 µM, the TGI (SNB-75 CNS) was over 100 µM and the TGI (SN12C renal) was over 100 µM. The TGI (RPMI-8226 leukemia) was over 100 µM, the TGI (MDA-MB-435) was over 100 µM and the TGI (NCI/ADR-RES ovarian) was over 100 µM. It also gave a TGI (CCRF-CEM leukemia) of over 100 µM, a TGI (MOLT-4 leukemia) of over 100 µM and a TGI (BT-549 breast) of over 100 µM. For the same molecule, the TGI (CAKI-1 renal) was over 100 µM, the TGI (SK-MEL-2 melanoma) was over 100 µM and the TGI (SK-OV-3 ovarian) was over 100 µM. For the same molecule, the TGI (COLO 205 colon) was over 100 µM, the TGI (NCI-H226 lung) was over 100 µM and the TGI (HOP-62 NSCLC) was over 100 µM. The TGI (SF-268 CNS) was over 100 µM, the TGI (SW-620 colon) was over 100 µM and the TGI (RXF 393 renal) was over 100 µM. For the same molecule, the TGI (SR leukemia) was over 100 µM, the TGI (M14 melanoma) was over 100 µM and the TGI (LOX IMVI melanoma) was over 100 µM. For the same molecule, the TGI (ACHN renal) was over 100 µM, the TGI (SF-539 CNS) was over 100 µM and the TGI (OVCAR-3 ovarian) was over 100 µM. It also gave a TGI (PC-3 prostate) of over 100 µM.
With `CC(=O)N(C)c1ccc(N=CN(C)C)cc1` the TGI (SNB-19 CNS) was over 100 µM, the TGI (MCF7 breast) was over 100 µM and the TGI (U251 CNS) was over 100 µM. For the same molecule, the TGI (SK-MEL-28 melanoma) was over 100 µM, the TGI (MALME-3M melanoma) was over 100 µM and the TGI (HL-60(TB) leukemia) was over 100 µM. It also gave a TGI (A549 NSCLC) of over 100 µM, a TGI (IGROV1 ovarian) of over 100 µM and a TGI (HCT-15 colon) of over 100 µM. The TGI (K-562 leukemia) was over 100 µM, the TGI (DU-145 prostate) was over 100 µM and the TGI (NCI-H23 lung) was over 100 µM. For the same molecule, the TGI (SF-295 CNS) was over 100 µM, the TGI (HCT-116 colon) was over 100 µM and the TGI (UO-31 renal) was over 100 µM. The TGI (MDA-MB-231 breast) was over 100 µM, the TGI (T-47D breast) was over 100 µM and the TGI (UACC-257 melanoma) was over 100 µM. For the same molecule, the TGI (OVCAR-5 ovarian) was over 100 µM, the TGI (MDA-N) was over 100 µM and the TGI (HOP-92 NSCLC) was over 100 µM. It also gave a TGI (UACC-62 melanoma) of over 100 µM, a TGI (OVCAR-8 ovarian) of over 100 µM and a TGI (TK-10 renal) of over 100 µM. It also gave a TGI (HT29 colon) of over 100 µM, a TGI (NCI-H522 lung) of over 100 µM and a TGI (786-0 renal) of over 100 µM. It also gave a TGI (OVCAR-4 ovarian) of over 100 µM, a TGI (SNB-75 CNS) of over 100 µM and a TGI (SN12C renal) of over 100 µM. The TGI (RPMI-8226 leukemia) was over 100 µM, the TGI (MDA-MB-435) was over 100 µM and the TGI (NCI/ADR-RES ovarian) was over 100 µM. The TGI (CCRF-CEM leukemia) was over 100 µM, the TGI (MOLT-4 leukemia) was over 100 µM and the TGI (SK-MEL-5 melanoma) was over 100 µM. The TGI (BT-549 breast) was over 100 µM, the TGI (CAKI-1 renal) was over 100 µM and the TGI (SK-MEL-2 melanoma) was over 100 µM. The TGI (SK-OV-3 ovarian) was over 100 µM, the TGI (A498 renal) was over 100 µM and the TGI (COLO 205 colon) was over 100 µM. For the same molecule, the TGI (NCI-H226 lung) was over 100 µM, the TGI (HOP-62 NSCLC) was over 100 µM and the TGI (SF-268 CNS) was over 100 µM. It also gave a TGI (EKVX NSCLC) of over 100 µM, a TGI (RXF 393 renal) of over 100 µM and a TGI (SR leukemia) of over 100 µM. The TGI (M14 melanoma) was over 100 µM, the TGI (LOX IMVI melanoma) was over 100 µM and the TGI (ACHN renal) was over 100 µM. For the same molecule, the TGI (SF-539 CNS) was over 100 µM, the TGI (OVCAR-3 ovarian) was over 100 µM and the TGI (PC-3 prostate) was over 100 µM.
`CC1(C)CC(O)C2=C(O1)C(=O)c1ncccc1C2=O` (stereo unspecified) showed a TGI (SNB-19 CNS) of 9.2 µM, a TGI (MCF7 breast) of 5.34 µM and a TGI (U251 CNS) of 3.21 µM. The TGI (SK-MEL-28 melanoma) was 3.16 µM, the TGI (HS 578T breast) was 6.56 µM and the TGI (MALME-3M melanoma) was 3.17 µM. For the same molecule, the TGI (HL-60(TB) leukemia) was 4.15 µM, the TGI (HCC-2998 colon) was 14.6 µM and the TGI (A549 NSCLC) was 23.4 µM. The TGI (IGROV1 ovarian) was 6.14 µM, the TGI (HCT-15 colon) was 12 µM and the TGI (DU-145 prostate) was 10 µM. It also gave a TGI (NCI-H23 lung) of 3.24 µM, a TGI (SF-295 CNS) of 3.35 µM and a TGI (HCT-116 colon) of 5.76 µM. It also gave a TGI (UO-31 renal) of 4.34 µM, a TGI (MDA-MB-231 breast) of 5.92 µM and a TGI (T-47D breast) of 5.91 µM. It also gave a TGI (NCI-H460 lung) of 5.89 µM, a TGI (UACC-257 melanoma) of 3.19 µM and a TGI (OVCAR-5 ovarian) of 3.72 µM. For the same molecule, the TGI (MDA-N) was 3.45 µM, the TGI (HOP-92 NSCLC) was 5.44 µM and the TGI (UACC-62 melanoma) was 3.15 µM. For the same molecule, the TGI (OVCAR-8 ovarian) was 9.34 µM, the TGI (TK-10 renal) was 20.1 µM and the TGI (HT29 colon) was 35.8 µM. It also gave a TGI (NCI-H522 lung) of 3.86 µM, a TGI (786-0 renal) of 3.62 µM and a TGI (KM12 colon) of 8.17 µM. The TGI (OVCAR-4 ovarian) was 3.15 µM, the TGI (SNB-75 CNS) was 2.1 µM and the TGI (SN12C renal) was 3.68 µM. For the same molecule, the TGI (RPMI-8226 leukemia) was over 22.6 µM, the TGI (MDA-MB-435) was 3.3 µM and the TGI (CCRF-CEM leukemia) was over 20.7 µM. For the same molecule, the TGI (MOLT-4 leukemia) was 4.55 µM, the TGI (SK-MEL-5 melanoma) was 3.1 µM and the TGI (BT-549 breast) was 3.18 µM. For the same molecule, the TGI (CAKI-1 renal) was 4.45 µM, the TGI (SK-MEL-2 melanoma) was 6.74 µM and the TGI (SK-OV-3 ovarian) was 27.4 µM. It also gave a TGI (A498 renal) of 18.6 µM, a TGI (COLO 205 colon) of 4.89 µM and a TGI (NCI-H226 lung) of 3.74 µM. The TGI (HOP-62 NSCLC) was 3.38 µM, the TGI (SF-268 CNS) was 4.85 µM and the TGI (SW-620 colon) was 3.56 µM. For the same molecule, the TGI (EKVX NSCLC) was 6.76 µM, the TGI (RXF 393 renal) was 12.3 µM and the TGI (SR leukemia) was over 19.8 µM. For the same molecule, the TGI (M14 melanoma) was 4.22 µM, the TGI (LOX IMVI melanoma) was 3.4 µM and the TGI (ACHN renal) was 11.5 µM. The TGI (SF-539 CNS) was 3.28 µM, the TGI (OVCAR-3 ovarian) was 5.4 µM and the TGI (PC-3 prostate) was 9.57 µM.
